These results are taken from ChEMBL document CHEMBL1145265, “Chiral discrimination in binding of enantiomers of 2-(aminoalkoxy)-substituted 4-(2-thienyl)pyrimidines and 4,6-bis(2-thienyl)pyrimidines with duplex DNA” (Bioorg Med Chem Lett, 2005).

Structures are written as SMILES.

In the experiment the test system is Calf thymus DNA. Briefly: Ratio of binding constant of S-enantiomer and R-enantiomer towards sonicated calf thymus DNA. Format: nucleic-acid assay. As to conditions: Bos taurus.
With `CC(N)COc1nc(-c2cccs2)cc(-c2cccs2)n1` (configuration not stated), the Ratio was determined as 1.2.

On to `Cc1c(-c2cccs2)nc(OCC2CCCN2)nc1-c1cccs1` (configuration not stated), for which the Ratio came out at 1.8. The figure for `Cc1c(-c2cccs2)nc(OCC(C)N)nc1-c1cccs1` (configuration not stated) is 1.5; for `c1csc(-c2cc(-c3cccs3)nc(OCC3CCCN3)n2)c1` (configuration not stated) it is 2.4; for `NCCOc1nc(-c2cccs2)cc(-c2cccs2)n1` it is 2.7. Regarding `Cc1cnc(OCC2CCCN2)nc1-c1cccs1` (configuration not stated), the Ratio is 1.4. Turning to `CC(C)C(N)COc1nc(-c2cccs2)cc(-c2cccs2)n1` (configuration not stated), the Ratio is 2.2.

On to `CCC(N)COc1nc(-c2cccs2)c(C)c(-c2cccs2)n1` (configuration not stated), for which the Ratio was 1.6. For the compound `Cc1c(-c2cccs2)nc(OCCN)nc1-c1cccs1`, the Ratio was determined as 2.2. `CCC(N)COc1nc(-c2cccs2)cc(-c2cccs2)n1` (configuration not stated): the Ratio was determined as 1.4. The value for `Cc1c(-c2cccs2)nc(OCC(N)C(C)C)nc1-c1cccs1` (configuration not stated) was 1.5. With `Cc1cnc(OCC(N)C(C)C)nc1-c1cccs1` (configuration not stated), the Ratio is 1.6.
